The values that follow are results of earlier work, collected in patent US20040209344A1, “Crystal structure of angiotensin-converting enzyme-related carboxypeptidase” (priority 2002, published 2004).

“Also recorded” adds a separate entry of the source. Like-named read-outs stand apart in the source and are kept apart here.

In data set [1] the target is T1, ACE2 (Homo sapiens, UniProt Q9BYF1). Details: made in house; host or cells: SF9 insect cells, baculovirus (pBac Pak9 vector), secreted into the culture supernatant. The following applies: Tipnis et al.
Target sequence in this assay (Q9BYF1 19-740): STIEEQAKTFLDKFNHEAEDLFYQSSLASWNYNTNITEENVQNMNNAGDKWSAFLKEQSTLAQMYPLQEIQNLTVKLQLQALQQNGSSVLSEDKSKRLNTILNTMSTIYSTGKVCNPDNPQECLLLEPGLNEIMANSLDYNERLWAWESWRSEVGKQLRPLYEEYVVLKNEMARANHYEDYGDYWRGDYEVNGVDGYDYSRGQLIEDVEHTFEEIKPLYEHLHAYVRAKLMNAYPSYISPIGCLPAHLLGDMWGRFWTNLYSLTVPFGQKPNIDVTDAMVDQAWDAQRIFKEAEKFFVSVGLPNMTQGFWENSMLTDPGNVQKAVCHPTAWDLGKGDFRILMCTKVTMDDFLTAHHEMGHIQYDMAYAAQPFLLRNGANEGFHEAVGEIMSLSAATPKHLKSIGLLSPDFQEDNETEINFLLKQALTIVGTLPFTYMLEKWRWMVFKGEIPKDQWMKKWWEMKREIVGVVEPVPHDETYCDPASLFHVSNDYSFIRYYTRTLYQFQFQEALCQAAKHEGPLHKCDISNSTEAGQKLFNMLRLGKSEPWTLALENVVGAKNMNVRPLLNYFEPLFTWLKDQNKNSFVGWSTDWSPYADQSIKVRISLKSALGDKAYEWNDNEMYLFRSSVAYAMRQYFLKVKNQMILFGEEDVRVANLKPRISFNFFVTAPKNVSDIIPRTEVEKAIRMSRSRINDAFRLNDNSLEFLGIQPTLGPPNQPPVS
Data set [2] concerns the target somatic ACE D991 to E mutant (Homo sapiens, UniProt P12821, D1020E). As to conditions: mutation of D991 to E in somatic ACE; Williams et al.
Data set [3] has as its target T1, ACE2.
Target sequence in this assay (Q9BYF1 18-805): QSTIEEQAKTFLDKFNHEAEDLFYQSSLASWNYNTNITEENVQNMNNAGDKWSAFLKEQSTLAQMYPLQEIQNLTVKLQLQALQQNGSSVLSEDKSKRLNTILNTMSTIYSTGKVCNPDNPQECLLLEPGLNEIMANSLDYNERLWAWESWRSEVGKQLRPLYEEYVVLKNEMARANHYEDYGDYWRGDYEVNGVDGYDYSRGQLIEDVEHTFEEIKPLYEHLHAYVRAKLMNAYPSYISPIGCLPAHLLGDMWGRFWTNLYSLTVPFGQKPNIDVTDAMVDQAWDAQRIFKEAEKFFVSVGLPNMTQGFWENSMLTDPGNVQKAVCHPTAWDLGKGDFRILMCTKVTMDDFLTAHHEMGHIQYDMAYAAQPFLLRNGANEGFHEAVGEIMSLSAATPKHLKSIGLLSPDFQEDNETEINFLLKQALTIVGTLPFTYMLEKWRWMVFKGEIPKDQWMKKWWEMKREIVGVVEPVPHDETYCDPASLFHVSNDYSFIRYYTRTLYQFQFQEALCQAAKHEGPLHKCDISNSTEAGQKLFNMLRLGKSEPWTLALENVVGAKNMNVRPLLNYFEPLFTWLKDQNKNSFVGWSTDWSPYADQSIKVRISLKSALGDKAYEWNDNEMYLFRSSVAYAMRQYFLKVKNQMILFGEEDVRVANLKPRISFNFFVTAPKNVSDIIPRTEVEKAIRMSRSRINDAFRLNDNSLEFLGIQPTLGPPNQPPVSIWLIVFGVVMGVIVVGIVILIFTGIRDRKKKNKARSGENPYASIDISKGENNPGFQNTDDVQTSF

somatic ACE D991 to E mutant, sequence (P12821 30-1306 D1020E): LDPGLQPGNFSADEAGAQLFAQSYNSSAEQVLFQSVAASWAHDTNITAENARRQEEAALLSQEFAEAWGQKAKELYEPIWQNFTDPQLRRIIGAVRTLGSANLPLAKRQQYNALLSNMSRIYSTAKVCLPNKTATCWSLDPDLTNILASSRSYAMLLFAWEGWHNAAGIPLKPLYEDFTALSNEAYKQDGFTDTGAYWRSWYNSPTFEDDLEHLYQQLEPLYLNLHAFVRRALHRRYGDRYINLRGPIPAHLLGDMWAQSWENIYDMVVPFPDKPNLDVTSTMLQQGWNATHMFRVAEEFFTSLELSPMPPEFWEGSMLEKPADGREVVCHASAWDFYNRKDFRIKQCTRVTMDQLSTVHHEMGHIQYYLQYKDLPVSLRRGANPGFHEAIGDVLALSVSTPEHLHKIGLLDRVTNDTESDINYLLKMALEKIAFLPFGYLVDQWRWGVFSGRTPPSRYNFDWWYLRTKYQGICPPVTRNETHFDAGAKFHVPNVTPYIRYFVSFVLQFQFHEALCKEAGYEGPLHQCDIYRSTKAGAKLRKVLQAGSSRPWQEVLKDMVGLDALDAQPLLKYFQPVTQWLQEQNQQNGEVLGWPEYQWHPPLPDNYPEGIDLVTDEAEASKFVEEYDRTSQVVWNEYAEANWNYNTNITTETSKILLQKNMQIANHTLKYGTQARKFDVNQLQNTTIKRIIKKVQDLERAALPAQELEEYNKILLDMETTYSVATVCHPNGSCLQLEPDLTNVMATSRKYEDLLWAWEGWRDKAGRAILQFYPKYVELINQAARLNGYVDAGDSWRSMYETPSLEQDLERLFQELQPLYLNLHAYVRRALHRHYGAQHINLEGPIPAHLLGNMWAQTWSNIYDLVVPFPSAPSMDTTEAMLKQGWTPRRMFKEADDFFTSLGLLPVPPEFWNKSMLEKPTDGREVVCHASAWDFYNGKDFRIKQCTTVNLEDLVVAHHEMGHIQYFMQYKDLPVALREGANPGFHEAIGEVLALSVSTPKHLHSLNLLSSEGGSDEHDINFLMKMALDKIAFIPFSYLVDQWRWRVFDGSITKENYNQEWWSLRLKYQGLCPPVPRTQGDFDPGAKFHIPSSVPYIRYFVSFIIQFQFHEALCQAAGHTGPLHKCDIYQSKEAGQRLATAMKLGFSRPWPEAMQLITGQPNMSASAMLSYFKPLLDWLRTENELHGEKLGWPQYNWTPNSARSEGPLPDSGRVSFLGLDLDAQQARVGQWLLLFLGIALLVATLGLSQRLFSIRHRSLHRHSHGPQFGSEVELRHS

For the compound `C[C@H](CS)C(=O)N1CCC[C@H]1C(=O)O` [captopril], the “inhibition of ACE2 by ACE inhibitors” value at ACE2 [1] is “did not inhibit; also recorded: not active”. Take `C[C@H](N[C@@H](CCc1ccccc1)C(=O)O)C(=O)N1[C@H](C(=O)O)C[C@H]2CCCC[C@@H]21` [trandolaprilat]: in data set [2], the “decrease in affinity for the inhibitor” value is “about 8 fold”. In the case of “Angiotensin 1-5: peptide DRVYI; SEQ ID NO: 10”, in the data set with ACE2 [3] (Vickers et al.), the “activity as peptide substrate for ACE2” value is “inactive”. As for “Angiotensin 1-9: peptide DRVYIHPFH; SEQ ID NO: 3”, the “activity as peptide substrate for ACE2” value with ACE2 [3] (Vickers et al.) is “inactive”. For the compound “Angiotensin II: vasoconstrictor peptide DRVYIHPF; SEQ ID NO: 2”, in the data set with ACE2 [3] (Vickers et al.), the “activity as peptide substrate for ACE2” value was “best in vitro peptide substrates”. As for Apelin 13, the “activity as peptide substrate for ACE2” value on ACE2 [3] is reported as “best in vitro peptide substrates”. On to Dynorphin A 1-13, for which the “activity as peptide substrate for ACE2” value at ACE2 [3] (Vickers et al.) is “best in vitro peptide substrates”.

Regarding “Leu-enkephalin: peptide YGGFL; SEQ ID NO: 8”, in the data set with ACE2 [3] (Vickers et al.), the “activity as peptide substrate for ACE2” value is “inactive”. In the case of “Met-enkephalin: peptide YGGFM; SEQ ID NO: 9”, the “activity as peptide substrate for ACE2” value with ACE2 [3] (Vickers et al.) was “inactive”. Turning to des-Arg^9 bradykinin, the “activity as peptide substrate for ACE2” value on ACE2 [3] (Vickers et al.) was “best in vitro peptide substrates”.
